# Like-named read-outs stand apart in the source and are kept apart here.
# Assays:
# Assay type in all cases: cell-based
# E. coli HS151 (ΔtolC) = assay: microbe, parasite or virus in culture; conditions: Escherichia coli
# Description: (§1) E. coli HS151 (ΔtolC) has been described previously. […] E. coli BW25113 and the Keio gene deletion collection based on BW25113 [25] were obtained from Thermo Fisher Scientific (Waltham, MA) and described in [26]. The plasmid-borne FQ resistance determinant, qnrVC3 [27], was kindly provided by D. Hooper (Massachusetts General Hospital). […] MB2884 (E. coli) and CL15245 (K. pneumoniae) are clinical isolates from the Merck & Co., Inc., Kenilworth, NJ, USA, strain collection. S. aureus COL is a methicillin-resistant clinical isolate.
# (§2) Compound doubling dilutions were prepared in 100% DMSO (Sigma Aldrich) and 2 μL of each dilution was transferred to a 96-well plate with lid (Thermo Scientific). Inoculum for all MIC testing was prepared using the BBL Prompt Inoculation System (Becton Dickinson, Franklin Lakes, NJ USA) as described by the manufacturer to produce a suspension of cells at approximately 1.5 x 10^8 colony forming units (CFU)/mL [34–36] and a further dilution (1:1000) was made into cation adjusted Mueller-Hinton broth (CAMH broth, Becton-Dickinson). One hundred μL of this inoculum were then transferred to each well of the 96-well plate containing diluted compound (above). Plates were covered and incubated overnight (18 hrs.) at 37°C.
# [1] = tested on: E. coli GYR103 GyrB L446Q; assay: microbe, parasite or virus in culture; conditions: Escherichia coli
# Description: (§3) E. coli HS151 (ΔtolC) has been described previously. Gyrase inhibitor-resistant isolates (GYR101-108) were derived by selection for spontaneous resistance to MRL-770 or MRL-423 (Fig 1) in E. coli HS151 as described below. E. coli BW25113 and the Keio gene deletion collection based on BW25113 [25] were obtained from Thermo Fisher Scientific (Waltham, MA) and described in [26]. The plasmid-borne FQ resistance determinant, qnrVC3 [27], was kindly provided by D. Hooper (Massachusetts General Hospital). MB9796 (A. baumannii) is a derivative of MB9797 (ATCC19606) lacking lipopolysaccharide. The efflux-defective P. aeruginosa strain MB5890 (CB398) is a derivative of MB5919 (PAO1). MB2884 (E. coli) and CL15245 (K. pneumoniae) are clinical isolates from the Merck & Co., Inc., Kenilworth, NJ, USA, strain collection. S. aureus COL is a methicillin-resistant clinical isolate.
# as §2
# After the agar solidified, 5 μL of a saturated bacterial culture, grown in CAMH broth, were dispensed on the agar surface and allowed to dry at room temperature. […] To select for resistance, a 100 mm petri dish was filled with 25 mL CAMH agar containing 8 μg/mL MRL-770 or 0.5 μg/mL MRL-423 (Fig 1). The cells in 1 mL of an overnight culture of E. coli HS151 (~10^9 CFU/mL) were concentrated by centrifugation and spread onto the surface of an MRL-770 or MRL-423 containing plate. After the surface dried at room temperature the plate was incubated at 37°C overnight. Any colonies that arose were counted and an approximate frequency of resistance was calculated after confirming resistance by restreaking on media containg compound as well as measuring MICs (see Results). Genomic DNA from the parent strain (E. coli HS151) and purified (restreaked) resistant isolates was obtained with a GeneJET genomic DNA purification kit according to the manufacturer’s instructions (Fisher Scientific). Assembled whole genome mutant sequences were then compared to the parent strain and polymorphisms were identified as described.
# [2] = tested on: E. coli GYR101 GyrB F513L; assay: microbe, parasite or virus in culture; conditions: Escherichia coli
# Description: as §1, §2
# (§4) After the agar solidified, 5 μL of a saturated bacterial culture, grown in CAMH broth, were dispensed on the agar surface and allowed to dry at room temperature. […] After the surface dried at room temperature the plate was incubated at 37°C overnight. […] Genomic DNA from the parent strain (E. coli HS151) and purified (restreaked) resistant isolates was obtained with a GeneJET genomic DNA purification kit according to the manufacturer’s instructions (Fisher Scientific). Assembled whole genome mutant sequences were then compared to the parent strain and polymorphisms were identified as described.
# [3] = tested on: E. coli GYR102 GyrB E466EV; assay: microbe, parasite or virus in culture; conditions: Escherichia coli
# Description: as §1, §2, §4
# [4] = tested on: E. coli GYR104 GyrB L470I; assay: microbe, parasite or virus in culture; conditions: Escherichia coli
# Description: as §1, §2, §4
# [5] = tested on: E. coli GYR105 GyrB T469K; assay: microbe, parasite or virus in culture; conditions: Escherichia coli
# Description: as §1, §2, §4
# [6] = tested on: E. coli GYR106 GyrB F513L/A468V; assay: microbe, parasite or virus in culture; conditions: Escherichia coli
# Description: as §1, §2, §4
# [7] = tested on: E. coli GYR107 GyrB F513L/L422V; assay: microbe, parasite or virus in culture; conditions: Escherichia coli
# Description: as §1, §2, §4
# [8] = tested on: E. coli GYR108 GyrB L470I/V467L; assay: microbe, parasite or virus in culture; conditions: Escherichia coli
# Description: as §1, §2, §4
# E. coli CIP101 GyrA D87N = assay: microbe, parasite or virus in culture; conditions: Escherichia coli
# Procedure: as §2
# [9] = tested on: E. coli MB2884 (clinical isolate); assay: Broth microdilution MIC, E. coli MB2884; conditions: Escherichia coli
# Description: as §1, §2
# [10] = tested on: A. baumannii ΔlpxC MB9796; assay: Broth microdilution MIC, A. baumannii MB9796; conditions: Acinetobacter baumannii
# Description: as §3, §2
# [11] = tested on: A. baumanii MB9797 (ATCC19606); assay: Broth microdilution MIC, A. baumannii MB9797; conditions: Acinetobacter baumannii
# Description: as §3, §2
# [12] = tested on: P. aeruginosa MB5919 (PAO1); assay: Broth microdilution MIC, P. aeruginosa MB5919; conditions: Pseudomonas aeruginosa
# Description: as §1, §2
# [13] = tested on: K. pneumoniae CL15245 (clinical isolate); assay: Broth microdilution MIC, K. pneumoniae CL15245; conditions: Klebsiella pneumoniae
# Description: as §1, §2
# S. aureus (MRSA) COL = assay: Broth microdilution MIC, S. aureus COL; conditions: Staphylococcus aureus
# Description: as §3, §2
# [14] = tested on: P. aeruginosa(effluxΔ) MB5890; assay: microbe, parasite or virus in culture; conditions: Pseudomonas aeruginosa
# Description: as §1, §2
# E. coli HS151 (qnrVC) = assay: Broth microdilution MIC, E. coli HS151 (qnrVC); conditions: Escherichia coli
# Description: as §3, §2
# E. coli BW25113 ΔtolC = assay: Broth microdilution MIC, E. coli BW25113 ΔtolC; conditions: Escherichia coli
# Description: as §3, §2
# The yacG deletion allele from the Keio collection was amplified by PCR (primers: […] and […]) and moved to BW25113 ΔtolC as described below. The E. coli strain BW25113 ΔtolC containing pKD46 [25] was used to inoculate SOB (Invitrogen)/0.2% w/v arabinose (Sigma Aldrich)/ampicillin (100 μg/mL) and grown overnight at 30°C. The overnight culture was then diluted 1/40 into 20 mL fresh SOB/0.2% w/v arabinose/ampicillin (100 μg/mL) and grown at 30°C while shaking for ~3 hrs until OD600 = 0.5. […]
# [15] = tested on: E. coli BW25113 ΔtolC/ΔyacG; assay: Broth microdilution MIC, E. coli BW25113 ΔtolC/ΔyacG; conditions: Escherichia coli, BW25113
# Procedure: as §2
# The yacG deletion allele from the Keio collection was amplified by PCR (primers: […] and […]) and moved to BW25113 ΔtolC as described below. The E. coli strain BW25113 ΔtolC containing pKD46 [25] was used to inoculate SOB (Invitrogen)/0.2% w/v arabinose (Sigma Aldrich)/ampicillin (100 μg/mL) and grown overnight at 30°C. The overnight culture was then diluted 1/40 into 20 mL fresh SOB/0.2% w/v arabinose/ampicillin (100 μg/mL) and grown at 30°C while shaking for ~3 hrs until OD600 = 0.5. Cells were pelleted by centrifugation at 4000 rpm for 10 min, washed with 40 mL ice cold sterile, distilled H2O, then 3 x 1 mL ice cold 10% glycerol followed by centrifugation at 5000 g for 3 minutes. The pellet was resuspended in 100 μL of 10% glycerol (1/200 of starting culture). For transformation, 5 μL of gel purified PCR product was added to 50 μL cells, mixed, and immediately electroporated in a 0.2 cm gap cuvette at 2.5kV, 25 μF, 200 Ω (BioRad, Hercules, CA USA). Electroporated cells were recovered in 1 mL SOC (Invitrogen)/0.2% arabinose at 37°C for 2 hours with shaking. Cells in amounts of 50 and 950 μL were then plated on LB agar supplemented with kanamycin (25 μg/mL) and incubated overnight at 37°C. Correct gene replacements were verified by PCR.
# [16] = Table 2, HS151, GyrB mutation none
# [17] = Table 1, MB2884 E. coli, read-out: MIC
# [18] = Table 1, MB9797 A. baumanii, read-out: MIC
# [19] = Table 1, MB5919 P. aeruginosa, read-out: MIC
# [20] = Table 1, CL15245 K. pneumoniae, read-out: MIC
Structure (SMILES),MIC (E. coli HS151 (ΔtolC); [16]) [µg/mL],MIC [1] [µg/mL],MIC [2] [µg/mL],MIC [3] [µg/mL],MIC [4] [µg/mL],MIC [5] [µg/mL],MIC [6] [µg/mL],MIC [7] [µg/mL],MIC [8] [µg/mL],MIC (E. coli CIP101 GyrA D87N) [µg/mL],MIC [10] [µg/mL],MIC (S. aureus (MRSA) COL; MRSA) [µg/mL],"MIC (E. coli HS151 (ΔtolC); Table 1, HS151 E. coli ΔtolC) [µg/mL]",MIC [14] [µg/mL],"MIC [9, 17] [µg/mL]","MIC [11, 18] [µg/mL]","MIC [12, 19] [µg/mL]","MIC [13, 20] [µg/mL]",also measured
COc1cc(Cc2cnc(N)nc2N)cc(OC)c1OC [Trimeth-oprim],0.0625,0.0625,0.0625,0.0625,0.0625,0.0625,0.0625,0.0625,0.125,0.0625,–,–,–,–,–,–,–,–,–
C[C@H]1COc2c(N3CCN(C)CC3)c(F)cc3c(=O)c(C(=O)O)cn1c23 [levofloxacin],–,0.0078,0.0078,0.0312,0.0078,–,0.0078,–,–,0.0625,0.0156,> 0.125,–,–,–,–,–,–,"MIC (E. coli HS151 (ΔtolC); 18 h, Table 1, HS151 E. coli ΔtolC): 0.00195 µg/mL; MIC [9]: 0.0156 µg/mL; MIC [11]: 0.125 µg/mL; MIC [12]: > 0.125 µg/mL; MIC [13]: 0.0156 µg/mL"
CO[C@@H]1[C@@H](OC(N)=O)[C@@H](O)[C@H](Oc2ccc3c(O)c(NC(=O)c4ccc(O)c(CC=C(C)C)c4)c(=O)oc3c2C)OC1(C)C [novobiocin],2,2,2,1,2,2,2,2,2,2,< 0.0625,0.125,2,64,> 64,8,64,> 64,"MIC (E. coli HS151 (ΔtolC); Fig 4 legend, E. coli HS151): 2 µg/mL; MIC (E. coli HS151 (ΔtolC); Table 3, HS151): 2 µg/mL; MIC (E. coli HS151 (qnrVC)): 2 µg/mL; MIC (E. coli BW25113 ΔtolC): 2 µg/mL; MIC [15]: 2 µg/mL"
CO[C@H]1/C=C/O[C@@]2(C)Oc3c(C)c(O)c4c(O)c(c(/C=N/N5CCN(C)CC5)c(O)c4c3C2=O)NC(=O)/C(C)=C\C=C\[C@H](C)[C@H](O)[C@@H](C)[C@@H](O)[C@@H](C)[C@H](OC(C)=O)[C@@H]1C [rifampicin],–,–,–,–,–,–,–,–,–,8,< 0.0625,< 0.0625,–,32,8,2,32,32,–
CN(C)[C@@H]1C(O)=C(C(N)=O)C(=O)[C@@]2(O)C(O)=C3C(=O)c4c(O)cccc4[C@@](C)(O)[C@H]3C[C@@H]12 [tetracycline],0.5,0.5,0.5,0.5,0.5,0.5,0.5,0.5,0.5,0.5,0.25,–,0.5,0.25,–,2,32,2,"MIC (S. aureus (MRSA) COL; Table 1, COL S. aureus (MRSA), read-out: MIC): > 64 µg/mL"

# Reference: article PMC5507300, “Antibacterial small molecules targeting the conserved TOPRIM domain of DNA gyrase” (PLoS ONE, 2017)
